Experimental data published in publication PMC13510729, “Multiheme selenoenzyme essential for elemental sulfur respiration” (Science Advances, 2026).

Tested on: T1, MccSep
T1 construct: selenoprotein read through an in-frame UGA (Sec325) joining gsu2937 and gsu2936, databases may hold it as two ORFs; C-terminal Factor Xa site and Strep-tag; expressed in G. sulfurreducens PCA delta-mccsep; five heme c per subunit; about 49 kDa; homotetramer of 200 kDa
Test: spectrophotometric oxidation of reduced methyl viologen at […] nm, allosteric sigmoidal fit
Type: biochemical, Geobacter sulfurreducens
Conditions: reduced methyl viologen (0.3 mM) with 0.075 mM dithionite, 2 mM CaCl2, 50 mM Bicine-NaOH pH 8.5, 30 °C, anaerobic; Hill coefficient 1.5 ± 0.1; read-out: apparent K0.5

With `O=[Se](O)O` [selenite] the Km was 990 ± 40 µM.
